Patent US20210196711A1, “LYSINE-SPECIFIC HISTONE DEMETHYLASE AS A NOVEL THERAPEUTIC TARGET IN MYELOPROLIFERATIVE NEOPLASMS” (Imago Biosciences, Inc., priority 2015, published 2021)
Structures can show the parent of a compound that is named as a salt.

Columns and labels:
[1] = test system: JAK2^V617F knock-in mouse model of myeloproliferative neoplasm (MPN); experiment: JAK2V617F knock-in mouse model of myeloproliferative neoplasm; type: in vivo; conditions: JAK2^V617F mice, 25 mg/kg/day, 56 days, compared to vehicle
Protocol: Compound [IMG 7289; need number or name inserted] was evaluated in the JAK2^V617F knock-in mouse model of myeloproliferative neoplasm (MPN). The procedure of Hasan et al. Blood, 2013, 122, 1464-1477, was followed. (See also Mullally et al. Cancer Cell 2010, 17, 584-596.) Animals bearing the JAK2^V617F were treated with Compound 2 tosylate (25 mg/kg/day) or vehicle for a total of 56 days. Blood samples were taken at the indicated time points and analyzed for hematocrit, white blood cell count (WBC) and platelets as described in Hasan et al. Non-drug-treated animals expressing the JAK2^V617F mutation manifested elevated levels of platelets, WBCs, and hematocrit as compared to wild-type animals.

[2] = primary myelofibrosis patients, 50 to 100 mg/day in combination with prednisone; cited from earlier work

SMILES | hematocrit [1] | platelet levels [1] | white blood cell count [1] | patients with improved anemia and thrombocytopenia [2] | patients with reduced spleen size [2]
CN1CCN(C(=O)[C@H](CCCN[C@@H]2C[C@H]2c2ccc(F)cc2)NC(=O)c2ccc(-n3ccnn3)cc2)CC1 [Compound 2 tosylate] | reduction | reduction | reduction |  | 
O=C1CCC(N2C(=O)c3ccccc3C2=O)C(=O)N1 (centres unmarked) [Thalidomide] |  |  |  | approximately 60% | approximately 20%
